Experimental data published in patent publication US20080139407A1, “Segment synthesis” (PEPSCAN SYSTEMS B. V., priority 2000, published 2008).
*: point of attachment. BrAc = O=C(CBr)*

Tests used:
[1] = test system: biotinylated DNA (3′-TATTCTCCGGACGAGTACCGTGAAGGGTC-Biotin-5′); experiment: Binding of biotinylated DNA by the construct of two PNAs, detected with streptavidin-horse radish peroxidase and ABTS; conditions: miniwell setup, polypropylene surface
Excerpt: FIG. 10. A) Schematic presentation of a DNA/RNA scan. The constructs are scanned with a labeled protein, for example a regulatory protein, or another DNA or PNA strand (top), or alternatively overlapping peptides are scanned with biotynilated RNA, DNA or PNA (bottom). The oligonucleotide sequences are shown in SEQ ID NOS 661-666, respectively, in order of appearance. B) Working example with biotinylated DNA on construct of two PNA's.
Chemistry in short: Detection of the binding of Biotinylated DNA by the construct of two PNAs. In miniwell setup the polypropylene (PP) surface of the miniwells was functionalized with carboxyl groups using gamma irradiation (12 kGy) in the presence of CuSO4 and 6% acrylic acid. Subsequently the PP surface was amino group functionalized (using BocHMDA/DCC/HOBt with subsequent removal of the Boc group with TFA). Next the amino groups were converted in thiol groups by coupling of Fmoc-Cys-(Trt) using DCC/HOBt, removal of the Fmoc group, acetylation of the amino group followed by removal of the Trt by TFA/triethyl silan. To this PP surface functionalized with thiol groups a PNA (PNA1) was coupled which contains N-terminal a bromoacetyl group and C-terminal an extra Cys-S-tBu (the Bromo group of the PNA reacts to the thiol group of the surface). After removal of the S-tBu (using NaBH4) of the Cys-S-tBu, the coupled PNA has a thiol group on C-terminal end. […]

monoclonal antibody-01 = experiment: Spotted peptide constructs tested against monoclonal antibody-01, indirect fluorescence detection; type: binding; conditions: peptides spotted in 1 μl to 0.25 nl
Description: FIG. 2. A) Microturisation of spots of peptide constructs. Constructs were tested against the same monoclonal antibody-01 as was tested in FIG. 1. Binding was made visible using indirect fluorescence detection. Peptide 1, sequence with an N-terminal bromoacetamide, was synthesised on the complete surface. Peptide construct 6-1 is the same as construct 125 in FIG. 1. Peptides 2 up to 8, containing a cysteine residue, were spotted in different volumes ranging from 1 μl to 0.25 nl using piezo drop-on-demand technology. […] The identified epitope is shown in black. The disclosed peptide is shown in SEQ ID NO: 7.
The bromoacetamide peptide was covalently bound to a functionalised polypropylene/polyacrylic acid solid support in 3 μl wells as described above. The cysteine-containing sequences were synthesised on and cleaved from functionalised polyethylene pins as described above. […] On a surface of a solid support peptides are synthesized with a bromoacetamide group at the N-terminus as described above. […]

monoclonal antibody-03 = experiment: Control test of peptide-covered surface with monoclonal antibody-03, indirect fluorescence detection; type: binding; conditions: peptide present on the whole square

| recognition / binding by monoclonal antibody-01 (monoclonal antibody-01) | Substance | binding of biotinylated DNA to the PNA construct [1] | recognition by monoclonal antibody-03 (monoclonal antibody-03) |
| --- | --- | --- | --- |
| – | GAGGCCTGCTspacer ATGGCACTTC (PNA, spacer, thioether coupling to polypropylene surface, chemistry not fully specified) [PNA construct, construct of PNA1 and PNA2 coupled via thioether on polypropylene surface] | binding | – |
| does not recognize | ADSLYTYPVATQ (BrAc-ADSLYTYPVATQ-NH2) | – | recognizes |
